Results from patent publication US8778966B2, “Quinolinone derivatives as PARP and tank inhibitors” (Janssen Pharmaceutica, NV, priority 2007, dated 2014).

What was measured:
PC-3 cells = assay: Antiproliferative activity, Alamar Blue assay, PC-3 cells; assay type: cell-based, human; details: Homo sapiens, PC-3, PC3 cells; read-out: PC3 antiproliferative activity pIC50 (converted)
Experimental: Human prostate cancer PC-3 cells obtained from the ATCC were cultured in HAM′S F12 medium supplemented with 1 mM Sodium Pyruvate, 1.5 g/L Sodium Bicarbonate, 50 μg/ml gentamicin, non-essential amino acids and 10% fetal calf serum.
(§1) Resazurin was purchased from Aldrich (Prod. No. 199303). Potassium ferrocyanide, potassium ferricyanide, KH2PO4 and K2HPO4 were purchased from Sigma (Prod. Nos. P9387, P8131, P5655 and P8281, respectively).
(§2) Potassium Phosphate Buffer 0.1 M (PPB) was made as follows: 2.72 gram KH2PO4 and 13.86 gram K2HPO4 were dissolved in 500 ml milli-Q H2O, the pH was adjusted to pH 7.4 and the volume was brought to 1 litre with milli-Q H2O; the buffer was filter sterilised and stored at room temperature. Resazurin stock solution (PPB-A) was prepared fresh by dissolving 45 mg resazurin in 15 ml PBS. 30 mM potassium ferricyanide (PPB-B) was prepared by dissolving 0.987 gram potassium ferricyanide in 100 ml PPB. 30 mM potassium ferrocyanide (PPB-C) was prepared by dissolving 1.266 gram potassium ferrocyanide in 100 ml PPB.
(§3) Mixture of PPB-A, PPB-B and PPB-C was prepared by mixing equal volumes of the respective solutions. Resazurin work solution (herein termed “Alamar Blue” solution) was prepared by diluting said mixture 20×(vol/vol) in PPB and filter sterilising; the Alamar Blue solution could be kept at 4° C. for a maximum of 2 weeks.
(§4) For experiments in 384 wells plates the cells were seeded at a density of 4.5×10^3 cells/ml in Falcon 384-well culture plates (Life Technologies, Merelbeke, Belgium), black with clear bottom, in 45 μl culture medium. Cells were allowed to adhere to plastic for 24 hr. The tested compound was pre-diluted (1/50 in culture medium) and 5 μl pre-diluted compound was added to the wells. Following 4-day incubation, 10 μl of the Alamar Blue solution was added to each well and the cells were further incubated for 4 hrs (HCT116) or 24 hrs (PC-3) at 37° C. The fluorescence intensity was measured for each well on a Fluorescence plate reader (Fluorskan, Labsystems, 540 nm excitation and 590 nm emission)
(§5) The antiproliferative activity was calculated as percentage of remaining viable cells in treated versus control (untreated cells) conditions. Within an experiment, the result for each experimental condition is the mean of 3 replicate wells. When appropriate, the experiments were repeated to establish full concentration-response curves. When appropriate, IC50-values (concentration of the drug, needed to reduce cell growth to 50% of the control) were computed using probit analysis for graded data (Finney, D. J., Probit Analyses, 2nd Ed. Chapter 10, Graded Responses, Cambridge University Press, Cambridge 1962). Herein the effects of test compounds are expressed as pIC50 (the negative log value of the IC50-value) (see Table 2).

PC3 cells = assay: EB1 Comet (microtubule disruption) assay; assay type: cell-based, human; details: Homo sapiens, PC-3, 1 h, 1 hour treatment, read-out: EB1 pLAC (converted)
Experimental: The Eb1 Comet assay relies on the detection of the Eb1 protein at the plus end of polymerizing microtubules (Mimori-Kiyosue, 2000) using indirect immunofluorescence. Disruption of microtubule dynamics through de-polymerization or stabilization results in a de-localization of Eb1 from the growing microtubule ends and this is visualized by the disappearance of Eb1 containing cytoplasmic foci.
Briefly, human prostate cancer PC3 cells obtained from the American Type Culture Collection were grown in 96-well plates (Greiner, cat. no. 655090) in HAM's F12 medium as recommended by the provider (ATCC). The cells were treated for 1 hour at 37° C. with compounds dissolved in DMSO (0.6% final DMSO concentration). The culture medium was then removed by aspiration and the cells were fixed by adding cold methanol (−20 C). After a 15 min. incubation at −20 C, the cells were washed twice with DPBS (Gibco) containing 0.5% Triton X-100. Mouse Eb1 antibody (BD Transduction Laboratories, cat. no. 610534) was added to the cells (1/250 dilution in DPBS containing 1% BSA) and incubated overnight at room temperature. The antibody was subsequently removed and the cells washed twice with DPBS, 0.5% Triton X-100. Secondary goat anti-mouse antibody conjugated to Alexa 488 fluorescent dye (Molecular Probes) was added at a 1/500 dilution in DPBS, 1% BSA and incubated for 1 hour at 37 C. The cells were washed twice with DPBS, 0.5% Triton X-100 and then DPBS containing 0.5% Triton X-100 and 1/5000 Hoechst 33342 (Molecular Probes) was added. Microscopy based Eb1 foci visualization was carried out using an IN Cell Analyser 1000 (Amersham Biosciences) using a 20× objective. Compound dependent microtubule disruption was visually determined by the disappearance in Eb1 foci. The lowest active concentration (LAC) was determined as the concentration where Eb1 foci were absent in at least 50% of the treated cells.

Human PARP-1 enzyme = molecular target: T1, Human PARP-1 enzyme (Homo sapiens, UniProt P09874); assay: In vitro Scintillation Proximity Assay (SPA) for PARP-1 inhibitory activity; assay type: biochemical; details: read-out: in vitro SPA assay PARP-1 pIC50 (converted)
T1 construct: purchased Trevigen
Experimental: Compounds of the present invention were tested in an in vitro assay based on SPA technology (proprietary to GE healthcare).
In principle, the assay relies upon the well established SPA technology for the detection of poly(ADP-ribosyl)ation of biotinylated target proteins, i.e histones. This ribosylation is induced using nicked DNA activated PARP-1 enzyme and [^3H]-nicotinamide adenine dinucleotide ([^3H]-NAD^+) as ADP-ribosyl donor.
Histones (type II-A, supplier: Sigma) were biotinylated using the biotinylation kit of Amersham and stored aliquoted at −20° C. A stock solution of 100 mg/ml SPA poly(vinyl toluene) (PVT) beads (supplier: Amersham) was made in PBS. A stock solution of 61.6 nM [^3H]-NAD^+ was made by adding [^3H]-NAD^+ (0.1 mCi/ml, supplier: Perkin Elmer) to incubation buffer (50 mM Tris/HCl, pH 8; 0.2 mM DTT; 4 mM MgCl2). A solution of 4 mM NAD^+ (supplier: Sigma) was made. Human PARP-1 enzyme was obtained from Trevigen. Biotinylated histones and PVT-SPA beads were mixed and pre-incubated for 30 min. at room temperature. PARP-1 enzyme (concentration was lot dependent) was mixed with the nicked DNA and the mixture was pre-incubated for 30 min. at 4° C. Equal parts of this histones/PVT-SPA beads solution and PARP-1 enzyme/DNA solution were mixed and 75 μl of this mixture together with 1 μl of compound in DMSO and 25 μl of [^3H]-NAD^+ was added per well into a 96-well microtiterplate. The final concentrations in the incubation mixture were 2 μg/ml for the biotinylated histones, 2 mg/ml for the PVT-SPA beads, 0.25 μg/ml for the nicked DNA and between 0.1-0.2 μg/ml for the PARP-1 enzyme. After incubation of the mixture for 20 min. at room temperature, the reaction was terminated by adding 100 μl of 4 mM NAD^+ in water (final concentration 2 mM) and plates were mixed. The beads were sedimented by centrifugation (10 min, 800 rpm). and plates transferred to a TopCountNXT™ (Packard) for scintillation counting, values were expressed as counts per minute (cpm). For each experiment, controls (containing PARP-1 enzyme and DMSO without compound), a blank incubation (containing DMSO but no PARP-1 enzyme, no DNA or compound) and samples (containing PARP-1 enzyme, DNA and compound dissolved in DMSO) were run in parallel. All compounds tested were dissolved and eventually further diluted in DMSO. A dose-response curve was made wherein the compounds were tested at concentrations between 10^−5M and 3×10^−9M. In each test, the blank value was subtracted from both the control and the sample values. The control sample represented maximal PARP-1 enzyme activity. For each sample, the amount of cpm was expressed as a percentage of the mean cpm value of the controls. When appropriate, IC50-values (concentration of the drug, needed to reduce the PARP-1 enzyme activity to 50% of the control) were computed using linear interpolation between the experimental points just above and below the 50% level. Herein the effects of test compounds are expressed as pIC50 (the negative log value of the IC50-value). As a reference compound, 4-amino-1,8-naphthalimide was included to validate the SPA assay.

HCT116 cells = assay: Antiproliferative activity, Alamar Blue assay, HCT116 cells; assay type: cell-based, human; details: Homo sapiens, HCT-116, HCT116 cells; read-out: HCT116 antiproliferative activity pIC50 (converted)
Experimental: Human colon carcinoma HCT116 cells obtained from the ATCC were cultured in McCoy's 5 A medium supplemented with 2 mM L-Glutamine, 50 μg/ml gentamicin and 10% heat inactivated fetal calf serum.
as §1, §2, §3, §4, §5

T1 sequence (P09874 whole entry): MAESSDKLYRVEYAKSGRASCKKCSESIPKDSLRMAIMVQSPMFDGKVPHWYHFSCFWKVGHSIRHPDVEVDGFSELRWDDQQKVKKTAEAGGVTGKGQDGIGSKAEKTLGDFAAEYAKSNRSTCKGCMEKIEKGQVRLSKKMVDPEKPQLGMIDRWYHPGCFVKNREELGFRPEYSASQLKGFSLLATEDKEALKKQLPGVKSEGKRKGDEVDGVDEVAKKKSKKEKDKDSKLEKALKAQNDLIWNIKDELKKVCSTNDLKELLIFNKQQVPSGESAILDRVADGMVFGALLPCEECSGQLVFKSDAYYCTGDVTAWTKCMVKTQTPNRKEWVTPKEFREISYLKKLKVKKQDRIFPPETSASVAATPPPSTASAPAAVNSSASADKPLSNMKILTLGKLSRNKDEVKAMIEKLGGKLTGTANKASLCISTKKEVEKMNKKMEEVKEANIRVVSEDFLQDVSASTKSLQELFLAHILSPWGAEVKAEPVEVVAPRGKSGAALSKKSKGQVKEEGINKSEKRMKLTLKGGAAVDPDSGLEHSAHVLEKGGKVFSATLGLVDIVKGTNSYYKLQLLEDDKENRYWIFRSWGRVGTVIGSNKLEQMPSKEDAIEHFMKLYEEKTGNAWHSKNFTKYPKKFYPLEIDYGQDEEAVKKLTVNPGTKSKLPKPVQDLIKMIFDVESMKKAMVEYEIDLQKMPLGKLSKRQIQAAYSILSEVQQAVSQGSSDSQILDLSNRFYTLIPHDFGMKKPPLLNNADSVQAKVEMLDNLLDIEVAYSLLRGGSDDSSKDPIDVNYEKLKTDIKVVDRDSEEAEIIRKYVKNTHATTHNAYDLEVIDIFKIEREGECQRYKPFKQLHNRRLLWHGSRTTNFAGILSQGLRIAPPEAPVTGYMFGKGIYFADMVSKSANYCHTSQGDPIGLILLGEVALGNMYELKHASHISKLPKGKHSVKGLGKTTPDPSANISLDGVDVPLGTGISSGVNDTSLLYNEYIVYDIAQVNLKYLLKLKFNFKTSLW

Row | Structure (SMILES) | IC50 (PC-3 cells) [nM] | minimal effective concentration (PC3 cells) [µM] | IC50 (Human PARP-1 enzyme) [nM] | IC50 (HCT116 cells) [nM] | melting point [°C]
1 | Cc1cc2ccc([C@](C)(C#N)[C@H]3CCCc4ccccc43)cc2[nH]c1=O [Compound 383] | 1260 | 3.16 | 501 | 501 | –
2 | Cc1cc2ccc([C@](C)(C#N)[C@H]3CCc4cc(Br)ccc43)cc2[nH]c1=O [Compound 239] | 2510 | 1 | 501 | 2000 | –
3 | CCc1cc2ccc(C(C)(C#N)Cc3cccc(C#N)c3C)cc2[nH]c1=O (centres unmarked) [Compound 4] | – | – | – | – | 174
4 | CCc1cc2ccc(C(C)(C#N)Cc3cccc(CC#N)c3)cc2[nH]c1=O (centres unmarked) | – | – | – | – | 150
5 | CCc1cc2ccc(C(C)(C#N)Cc3ccc(OCCCN4CCOCC4)c(C#N)c3)cc2[nH]c1=O (centres unmarked) [Compound 5] | – | – | – | – | 153
